We go through 19 compounds from PubChem BioAssay (NCI).

Common to all, as to experiment: growth of human tumour cells (NCI), 48 h
For experiment [1], the system named is UO-31 renal.
Experiment [2] concerns ACHN renal.
For experiment [3], the system named is M14 melanoma.
Experiment [4] has as its system T-47D breast.
Experiment [5] relates to UACC-257 melanoma.
Experiment [6] relates to IGROV1 ovarian.
The subject of experiment [7] is SN12C renal.
The test system of experiment [8] is RPMI-8226 leukemia.
Experiment [9] concerns UACC-62 melanoma.
For experiment [10], the system named is HL-60(TB) leukemia.

Structures are written as SMILES.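 Five compound concentrations were applied to cells in 96-well plates for 48 hours; endpoints were derived by simple linear interpolation of the resulting dose-response curve. GI50 = concentration required for 50% inhibition of growth. Definition used: TGI = concentration required for complete inhibition of growth.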

Regarding `CCc1ccccc1NC(=O)C(C#N)C1=C(Cl)C(=O)c2ccccc2C1=O` (stereo unspecified), the TGI in [1] came out at 26.6 µM; in experiment [2], 29.9 µM; in experiment [3] it was 21.8 µM; in [4] it was 52.4 µM; in experiment [5], 31.8 µM; in experiment [6], 32.8 µM. Also, the TGI in experiment [7] was 27.9 µM; in experiment [8], 77.9 µM; in [9], 31.2 µM; in experiment [10], 83.3 µM.
With `O=C(O)CCCCn1ccc(=O)[nH]c1=O`, the TGI in experiment [1], in experiment [2], in experiment [3], in experiment [4], in [5] and in experiment [6] was greater than 100 µM throughout. Besides, the TGI in experiment [7], in [8], in [9] and in [10] was greater than 100 µM throughout.
Turning to `CCn1c(-c2nonc2N)nc2c(C#CC(C)(C)O)ncc(OC3CCNCC3)c21`, the GI50 in experiment [1] is greater than 25 µM; in experiment [2] it was greater than 25 µM; in experiment [3] it was 21.6 µM; in [4] it was 1.21 µM; in experiment [5], greater than 25 µM; in experiment [6], 0.696 µM. The GI50 in experiment [7] is 9.21 µM; in experiment [8] it was greater than 25 µM; in experiment [9] it was 15.8 µM; in [10], 8.38 µM. The TGI in experiment [1], in [2], in experiment [3], in experiment [4], in experiment [5] and in experiment [6] was greater than 25 µM throughout. The TGI in experiment [7] is greater than 25 µM; in experiment [8] it was greater than 25 µM; in experiment [9], greater than 25 µM; in experiment [10], 19 µM.
As for `Cc1ccc(-c2nc3nc(-c4ccc(F)cc4)nc(N4CCNCC4)c3o2)cc1`, the GI50 was 1.46 µM in experiment [1]; 1.79 µM in experiment [2]; 1.92 µM in [3]; 2.3 µM in [4]; 18.4 µM in experiment [5]; 1.68 µM in [6]. For the same compound, the GI50 is 5.54 µM in experiment [7], 2.36 µM in experiment [8], 15.4 µM in experiment [9] and 1.91 µM in [10]. Also, the TGI in experiment [1] was determined as 2.79 µM; in experiment [2] it was 3.19 µM; in experiment [3], 3.79 µM; in [4], 6.92 µM; in experiment [5], 37.6 µM; in experiment [6], 3.16 µM. In addition, the TGI in [7] turned out to be 19.8 µM; in experiment [8] it was 5.49 µM; in experiment [9] it was 29.9 µM; in [10], 4.3 µM.
In the case of `N#CC1C[C@@H]2CC3(CCC2CN1C(=O)c1ccccc1)OCCO3` (stereo partly specified), the TGI in experiment [1], in experiment [2], in experiment [3], in [4], in experiment [5] and in experiment [6] was greater than 100 µM in each case. In addition, the TGI in experiment [7], in experiment [8], in [9] and in [10] was greater than 100 µM throughout. In addition, in experiment [4], the GI50 was greater than 100 µM.
On to `Cc1ccccc1C1=C(c2cn(C)c3ccccc23)C(=O)NC1=O`, for which the GI50 in experiment [1] was greater than 25 µM; in experiment [2], 7.33 µM; in [3] it was greater than 25 µM; in experiment [4], 17.8 µM; in [5] it was greater than 25 µM; in experiment [6], greater than 25 µM. The GI50 in [7] was greater than 22.7 µM; in [8], 20 µM; in experiment [9], greater than 20.5 µM; in experiment [10], 10.8 µM. Besides, the TGI in [1], in [2], in [3], in [4], in [5] and in experiment [6] was greater than 25 µM in each case. In addition, the TGI in [7], in [8], in experiment [9] and in experiment [10] was greater than 25 µM throughout.
Turning to `ClCCCSSCCCCl`, the TGI in experiment [1], in experiment [2], in [3], in experiment [4], in experiment [5] and in [6] was greater than 100 µM in each case. For the same compound, the TGI is greater than 95.1 µM in [7], greater than 100 µM in experiment [8], greater than 100 µM in [9] and 16 µM in experiment [10].
With `CC(=O)OCC12CN(C#N)C3C4COC(CC41)C1(C(=O)N(C)c4ccccc41)C32` (stereo unspecified), the TGI came out at 31.4 µM in experiment [1]; 38 µM in [2]; 61.9 µM in [3]; 62.7 µM in [4]; 51.8 µM in experiment [5]; 85 µM in [6]. The TGI in [7] is 73.1 µM; in experiment [8], greater than 100 µM; in experiment [9] it was 52.2 µM; in experiment [10] it was 30.7 µM.
Take `COC(=O)Oc1nn(C(=O)OC)c(=O)c2ccccc12`: the TGI in experiment [1], in experiment [2], in experiment [3], in [4], in experiment [5] and in experiment [6] was greater than 100 µM in each case. For the same compound, the TGI in [7], in experiment [8], in experiment [9] and in experiment [10] was greater than 100 µM each time.
Consider `Fc1cc(F)c(F)c(S)c1F`, for which the TGI in experiment [1], in [2], in [3], in experiment [4], in [5] and in experiment [6] was greater than 100 µM each time. The TGI was 43.8 µM in experiment [7], greater than 100 µM in experiment [8], greater than 100 µM in [9] and greater than 100 µM in experiment [10].
On to `O=C(/C=C/C12c3ccccc3C(c3ccccc31)C1C(=O)N(c3ccc(Cl)cc3)C(=O)C12)c1ccccn1` (stereo unspecified), for which the GI50 in [1] was 0.178 µM; in experiment [2], 0.234 µM; in experiment [3] it was 0.3 µM; in [4] it was 0.312 µM; in experiment [5], 0.39 µM; in [6] it was 0.248 µM. For the same compound, the GI50 in experiment [7] was 0.32 µM; in experiment [8] it was 0.234 µM; in experiment [9], 0.279 µM; in experiment [10], 0.24 µM. Moreover, the TGI stood at 0.399 µM in experiment [1]; 0.56 µM in experiment [2]; 1.19 µM in experiment [3]; 4.15 µM in experiment [4]; 1.96 µM in experiment [5]; 0.643 µM in experiment [6]. Further, the TGI worked out at 1.57 µM in [7], 0.682 µM in experiment [8], 0.973 µM in experiment [9] and 1.35 µM in [10].
As for `N#CC(C#N)=CNCCN1CCN(C=C(C#N)C#N)CC1`, the TGI in experiment [1], in [2], in [3], in experiment [4], in experiment [5] and in experiment [6] was greater than 100 µM in each case. Moreover, the TGI in experiment [7], in [8], in experiment [9] and in experiment [10] was greater than 100 µM each time.
Regarding `CNC(=O)c1nn(C)c2c1C(C)(C)Cc1cnc(Nc3cccc(N4CCN(C)CC4)c3)nc1-2`, the GI50 in experiment [1] is 0.0881 µM; in experiment [2], 0.0896 µM; in experiment [3], 0.204 µM; in experiment [4] it was 0.59 µM; in experiment [5], 0.386 µM; in experiment [6], 0.166 µM. Besides, the GI50 was 0.323 µM in experiment [7], 0.192 µM in [8], 0.369 µM in [9] and 0.596 µM in [10]. The TGI in experiment [1] is 1.96 µM; in experiment [2] it was greater than 58.2 µM; in experiment [3], 11.8 µM; in experiment [4], 22.6 µM; in experiment [5], 7.09 µM; in [6], 11.6 µM. Moreover, the TGI in [7] came to 31 µM; in experiment [8] it was 1.06 µM; in experiment [9], 11.6 µM; in experiment [10], 6.64 µM.
On to `COc1ccc(-c2cc(/C=C3\C(=O)Nc4cc(Cl)ccc43)[nH]n2)cc1`, for which the GI50 in [1] is 3.49 µM; in [2], 5.49 µM; in experiment [3], 2.7 µM; in experiment [4] it was 6.6 µM; in experiment [5], 26.3 µM; in experiment [6], 4.76 µM. The GI50 in [7] is 6.69 µM; in experiment [8], 3.3 µM; in experiment [9], 2.46 µM; in [10] it was 2.26 µM. The TGI in experiment [1], in experiment [2], in [3], in [4], in experiment [5] and in experiment [6] was greater than 100 µM each time. Further, the TGI is greater than 100 µM in experiment [7], 40 µM in [8], greater than 100 µM in experiment [9] and 6.33 µM in [10].
Take `COC(=O)C1=COC2OC3C(C(C)O)C(=O)OC34C=CC1C24` (stereo unspecified): the TGI in [1], in [2], in experiment [3], in [4], in [5] and in experiment [6] was greater than 100 µM each time. Also, the TGI is greater than 100 µM in experiment [7], 90.8 µM in [8], 79.1 µM in experiment [9] and 39.7 µM in [10].
In the case of `CN1CCN(C(=O)[C@@]2(C)CC[C@]3(C)CC[C@]4(C)C(=CC[C@@H]5[C@@]6(C)CCC(=O)NC(C)(C)[C@@H]6CC[C@]54C)[C@@H]3C2)CC1`, the GI50 in experiment [1] was 1.19 µM; in experiment [2], 1.99 µM; in experiment [3], 1.69 µM; in experiment [4] it was 1.62 µM; in [5] it was 2.1 µM; in experiment [6], 1.77 µM. Besides, the GI50 in experiment [7] was 1.46 µM; in [8], 1.43 µM; in experiment [9], 1.55 µM; in experiment [10], 1.87 µM. The TGI in [1] worked out at 2.51 µM; in [2], 4.11 µM; in experiment [3], 3.38 µM; in experiment [4], 4.21 µM; in experiment [5], 4.72 µM; in experiment [6], 3.77 µM. In addition, the TGI in [7] was 3.3 µM; in experiment [8], 3.74 µM; in experiment [9] it was 3.03 µM; in [10], 3.87 µM.
On to `Cc1ccc([Se](=C(C(=O)c2ccccc2)C(=O)c2ccccc2)c2ccc(C)cc2)cc1`, for which the TGI is greater than 100 µM in [1]; 77.8 µM in experiment [2]; greater than 100 µM in experiment [3]; greater than 100 µM in [4]; 53.1 µM in [5]; 78.5 µM in experiment [6]. The TGI in [7] came out at 36.7 µM; in experiment [8] it was 22.4 µM; in experiment [9], 51.5 µM; in experiment [10] it was 54.2 µM.
Take `COc1cc2c3c(n(CCCN4CCNCC4)c(=O)c2cc1OC)-c1cc2c(cc1C3=O)OCO2`: the GI50 was 1.19 µM in experiment [1]; 0.0394 µM in [2]; 1.09 µM in experiment [3]; 2.54 µM in [4]; 7.08 µM in [5]; 2.03 µM in experiment [6]. The GI50 is 0.102 µM in [7], 0.16 µM in experiment [8], 0.997 µM in experiment [9] and 0.00886 µM in experiment [10]. Also, the TGI amounted to 10.6 µM in experiment [1]; 0.283 µM in experiment [2]; 7.31 µM in experiment [3]; 21.3 µM in experiment [4]; 15.5 µM in experiment [5]; 20.7 µM in experiment [6]. Also, the TGI in [7] worked out at 0.491 µM; in [8], 1.63 µM; in experiment [9], 7.61 µM; in experiment [10], 0.746 µM.
Consider `C/C(CCC(=O)O)=N/Nc1ccc([N+](=O)[O-])cc1`, for which the GI50 in [1] is 3.27 µM; in [2] it was 2.19 µM; in [3] it was 1.53 µM; in experiment [4], 3.66 µM; in [5], 70.6 µM; in [6], greater than 100 µM. For the same compound, the GI50 in experiment [7] was greater than 100 µM; in experiment [8], 57.7 µM; in experiment [9], 0.492 µM; in experiment [10] it was 1.51 µM. Besides, the TGI in experiment [1], in [2], in experiment [3], in experiment [4], in experiment [5] and in experiment [6] was greater than 100 µM each time. The TGI in experiment [7] was greater than 100 µM; in experiment [8], greater than 100 µM; in experiment [9], 62.3 µM; in [10], greater than 100 µM.
